Assay results reported in patent US20210386365A1, “BIOMARKERS OF NEUROPATHIC PAIN” (Children`s Medical Center Corporation, priority 2018, published 2021).

Test system: SNI mice
Assay: EEG/EMG sleep analysis (NREMS fragmentation by brief awakenings) in spared nerve injury mice treated with analgesic drugs
Format: in vivo
Settings: for sleep fragmentation: mice with nerve injury, efficacy at doses active in patients with neuropathic pain
Source text: EEG/EMG implantation surgery: C57BL6/j mice were anesthetized with isoflurane gas (3% induction/2% maintenance) and placed in a stereotaxic apparatus (David Kopf Instruments, Tujunga, Calif.). […] Two flexible EMG electrodes(multistranded stainless steel wire; AS131, Cooner Wire, Chatsworth, Calif.) were inserted into the neck extensor muscles. All electrodes were previously soldered to a six-pin connector (MMX852-10-006-10-001000; Mill-Maz Mfg. Corp., Oyster Bay, N.Y.) and covered with epoxy glue to ensure insulation. The headmount was affixed to the animal's skull with dental acrylic cement, and the scalp wound was sutured closed behind the headmount. Mice were given meloxicam (5 mg/kg, i.p.) before they regained consciousness and then daily for 3 days and were housed singly after surgery.
EEG/EMG acquisition: Ten to fifteen days after EEG/EMG implantation, mice were transferred to individual sleep-recording cages (transparent cylindrical cage, 12″ diameter and 12″ height) in a sound-attenuated chamber with a 12:12 h light-dark cycle, ad libitum food and water, and connected to a tethered pre-amplifier (100× gain, 0.5 Hz high-pass filter for EEG, 10 Hz high-pass filter for EMG; Pinnacle Technology Inc., Lawrence, Kans., USA). The other end of the tether was plugged into a low-torque commutator (8204, Pinnacle Technology Inc., Lawrence, Kans., USA) for freely moving recordings. A data conditioning and acquisition system (DCAS, 8206) performed secondary amplification and filtering (low-pass filter: 100 Hz for EEG, 200 Hz for EMG). Mice habituated for 3-5 days to the recording setup before their baseline sleep-wake and sensory behaviors were measured.
Spared nerve injury (SNI): surgery was performed under 3% induction/2% maintenance with isoflurane on adult mice (8 to 12 weeks old). The tibial and common peroneal branches of the sciatic nerve were tightly ligated with a 5.0 silk suture and transected distally, while the sural nerve was left intact (Decosterd and Woolf, 2000). After injury, incision was sutured and mice were allowed to recover on heated pads before being returned to their homecage. The surgeon who performed the SNI was blinded to the genotype. This model causes permanent pain hypersensitivity. Sciatic nerve crush (SNcrush): surgery was performed under 3% induction/2% maintenance with isoflurane on adult mice (8 to 12 weeks old). The left sciatic nerve was exposed just below the sciatic notch under sterile conditions and then crushed using Dumont #5/45 forceps for 30 seconds under a dissection microscope. After the nerve injury, the incision wound was sutured and animals were allowed to recover on heated pads before being returned to their home cage. The surgeon who performed the SNcrush was blinded to the treatment. This model causes transient hypersensitivity before return to normal sensitivity. Sham control: surgery was performed under 3% induction/2% maintenance with isoflurane on adult mice (8 to 12 weeks old). The left sciatic nerve was exposed but left intact and the animals were allowed to recover on heated pads before being returned to their home cage.
EEG and EMG signals were digitized at a sampling rate of 400 Hz through Sirenia® Acquisition software (Pinnacle Technology Inc, Lawrence, Kans., USA) and converted to European Data Format (.EDF). Using SleepSign® for Animal (Kissei Comtec Co., Japan) software, EEG and EMG signals were digitally filtered (EEG, 0.5-100 Hz; EMG, 10-200 Hz) and scored semi-automatically using 10-s epochs, as wake, NREMS or REMS. This preliminary scoring was visually inspected by a trained experimenter, who was blinded to the experimental conditions, and corrected when appropriate. To evaluate sleep fragmentation, transient waking events occurring during NREMS were evaluated: these brief awakenings (BAs) were defined by a high-frequency low-amplitude EEG associated with an increase of EMG tone ranging from 2-15 s (Franken et al., 1991; Tobler et al., 1997). […]

| SMILES | average length of NREM (SNI mice, carbamazepine 5 mg/kg versus saline, FIGS. 8E-8G) | sleep fragmentation | total amount of sleep (SNI mice with and without GBP treatment, FIG. 8C) | latency on sleep (time from full wakefulness to sleep) (SNI mice with and without GBP treatment, FIG. 8D) | time after administration at which effects on NREMS length were the strongest (SNI mice, FIG. 8B) [h] | sedation (SNI mice, gabapentin treatment) | average length of NREMS (SNI mice, gabapentin treatment, FIG. 8A) |
| --- | --- | --- | --- | --- | --- | --- | --- |
| NC(=O)N1c2ccccc2C=Cc2ccccc21 [carbamazepine] | restored the average length of NREM | dose-dependently normalize sleep fragmentation |  |  |  |  |  |
| NCC1(CC(=O)O)CCCCC1 [gabapentin] |  | dose-dependently normalize sleep fragmentation | not affected | slight increase | 0 to 2 | without causing sedation | restored the average length of NREMS |
